Measurements as given in patent US20190169134A1, “NOVEL CLASS OF QUINOLONE HETEROCYCLIC AROMATIC MOLECULES FOR CANCER TREATMENT” (RenoTarget Therapeutics, Inc., priority 2016, published 2019).

Legend:
[1] = target: T1, AURKA (Homo sapiens, UniProt O14965); assay: KinaseSeeker competition binding assay
T1 construct: made in house; host or cells: cell-free system (rabbit reticulocyte lysate)
Description: (§1) Compound Reno647 was profiled against the following panel of kinases at 2 μM using the KinaseSeeker™ assay: ABL1, AKT1, AKT2, AKT3, ALK, AURKA, AXL, BRAF, BTK, CDK2, CDK5, CDK7, CDK8, CSF1R, DDR1, EGFR del L747-P753 InsS, EGFR (L861Q), EGFR (G719S), EGFR, EGFR (L858R), EPHA2, EPHB2, FGFR3, FLT1/VEGFR1, FLT2/FGFR1, FLT3, FLT4/VEGFR3, GSK-3a, HER2, IGF1R, INSR, KIT, LIMK1, MET, MLK2/MAP3K10, RPS6KA5/MSK1, MUSK, p38a/MAPK12, PDGFRA, PDGFRB, PDK1, RET, RIPK2, RPS6KA1/RSK1, SRC, TEC, TESK1, TRKB, VEGFR2, and YES 1.
(§2) KinaseSeeker is a homogeneous competition binding assay where the displacement of an active site dependent probe by an inhibitor is measured by a change in luminescence signal (see FIG. 7). Luminescence readout translates into a highly sensitive and robust assay with low background and minimal interference from test compounds.
(§3) (Jester, Cox et al. 2010; Jester, Gaj et al. 2012): 10 mM stock of compound Reno647 was diluted in DMSO to a concentration of 50 μM. Prior to initiating a profiling campaign, the compound was evaluated for false positive against split-luciferase. The compound was then screened in duplicate against each of the kinases. For kinase assays, each Cfluc-Kinase was translated along with Fos-Nfluc using a cell-free system (rabbit reticulocyte lysate) at 30° C. for 90 min. A 24 μL aliquot of this lysate containing either 1 μL of DMSO (for no-inhibitor control) or compound solution in DMSO (2 LM final concentration) was incubated for 30 minutes at room temperature followed by 1 hour in the presence of a kinase specific probe. A 80 μL of luciferin assay reagent was added to each solution and luminescence was immediately measured on a luminometer.
(§4) The % Inhibition and % Activity Remaining were calculated using the following equations:
(§5) % inhibition=(ALUcontrol−ALUsample)×100
(§6) % activity=100−% inhibition.

[2] = target: T2, VEGFR2 (Homo sapiens, UniProt P35968); assay: KinaseSeeker competition binding assay
T2 construct: made in house; host or cells: cell-free, rabbit reticulocyte lysate
Description: as §1, §2, §3, §4, §5, §6

[3] = target: T3, MLK2 (Homo sapiens, UniProt Q02779); assay: KinaseSeeker competition binding assay
T3 construct: made in house; host or cells: cell-free, rabbit reticulocyte lysate
Description: as §1, §2, §3, §4, §5, §6

[4] = target: T4, PDPK1 (Homo sapiens, UniProt O15530); assay: KinaseSeeker competition binding assay
T4 construct: made in house; host or cells: cell-free, rabbit reticulocyte lysate
T4 sequence (O15530 whole entry): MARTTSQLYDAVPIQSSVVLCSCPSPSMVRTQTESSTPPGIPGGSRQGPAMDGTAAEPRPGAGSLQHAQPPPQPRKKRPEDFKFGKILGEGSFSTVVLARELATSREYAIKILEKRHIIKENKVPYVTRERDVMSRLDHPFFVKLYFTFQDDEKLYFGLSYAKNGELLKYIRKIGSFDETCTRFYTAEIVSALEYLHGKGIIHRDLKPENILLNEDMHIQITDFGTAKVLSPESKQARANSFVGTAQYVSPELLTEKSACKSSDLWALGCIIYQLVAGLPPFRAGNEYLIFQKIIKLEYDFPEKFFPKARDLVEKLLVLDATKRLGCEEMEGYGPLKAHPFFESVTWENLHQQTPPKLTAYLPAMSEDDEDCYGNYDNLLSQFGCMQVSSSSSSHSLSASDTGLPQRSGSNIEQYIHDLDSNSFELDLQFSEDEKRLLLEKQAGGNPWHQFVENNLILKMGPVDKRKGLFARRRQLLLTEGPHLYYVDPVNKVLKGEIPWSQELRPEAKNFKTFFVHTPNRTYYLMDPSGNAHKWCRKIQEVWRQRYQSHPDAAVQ
Description: as §1, §2, §3, §4, §5, §6

[5] = target: T5, FLT2 (Homo sapiens, UniProt P11362); assay: KinaseSeeker competition binding assay
T5 construct: made in house; host or cells: cell-free system (rabbit reticulocyte lysate)
T5 sequence (P11362 22-822): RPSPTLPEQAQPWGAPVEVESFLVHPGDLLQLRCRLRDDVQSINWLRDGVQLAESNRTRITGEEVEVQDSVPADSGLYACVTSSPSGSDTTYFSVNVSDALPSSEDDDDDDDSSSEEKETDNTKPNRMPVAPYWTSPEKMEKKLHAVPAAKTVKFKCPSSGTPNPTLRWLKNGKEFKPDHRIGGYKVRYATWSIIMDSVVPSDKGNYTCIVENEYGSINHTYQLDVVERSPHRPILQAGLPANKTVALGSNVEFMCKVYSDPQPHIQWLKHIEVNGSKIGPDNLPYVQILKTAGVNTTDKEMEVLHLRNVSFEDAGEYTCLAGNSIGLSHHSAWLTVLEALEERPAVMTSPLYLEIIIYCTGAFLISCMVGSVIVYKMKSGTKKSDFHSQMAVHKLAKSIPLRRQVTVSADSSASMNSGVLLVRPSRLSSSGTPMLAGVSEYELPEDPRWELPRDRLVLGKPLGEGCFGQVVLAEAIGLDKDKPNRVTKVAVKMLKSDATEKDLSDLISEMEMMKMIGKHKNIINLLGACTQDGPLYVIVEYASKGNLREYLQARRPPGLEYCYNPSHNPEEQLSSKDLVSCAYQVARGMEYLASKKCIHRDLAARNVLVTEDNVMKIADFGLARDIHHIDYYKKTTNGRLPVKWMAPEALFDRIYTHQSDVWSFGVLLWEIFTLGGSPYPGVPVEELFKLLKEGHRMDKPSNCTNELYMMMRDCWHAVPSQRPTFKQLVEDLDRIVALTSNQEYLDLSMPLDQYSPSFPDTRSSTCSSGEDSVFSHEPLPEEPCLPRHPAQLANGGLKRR
Description: as §1, §2, §3, §4, §5, §6

[6] = test system: p38a; assay: KinaseSeeker competition binding assay; details: 2 μM
Description: as §1, §2, §3, §4, §5, §6

[7] = target: T6, IGF1R (Homo sapiens, UniProt P08069); assay: KinaseSeeker competition binding assay
T6 construct: made in house; host or cells: cell-free, rabbit reticulocyte lysate
Description: as §1, §2, §3, §4, §5, §6

[8] = target: T7, PDGFRA (Homo sapiens, UniProt P16234); assay: KinaseSeeker competition binding assay
T7 construct: made in house; host or cells: cell-free, rabbit reticulocyte lysate
Description: as §1, §2, §3, §4, §5, §6

[9] = target: T8, DDR1 (Homo sapiens, UniProt Q08345); assay: KinaseSeeker competition binding assay
T8 construct: made in house; host or cells: cell-free system (rabbit reticulocyte lysate)
T8 sequence (Q08345 19-913): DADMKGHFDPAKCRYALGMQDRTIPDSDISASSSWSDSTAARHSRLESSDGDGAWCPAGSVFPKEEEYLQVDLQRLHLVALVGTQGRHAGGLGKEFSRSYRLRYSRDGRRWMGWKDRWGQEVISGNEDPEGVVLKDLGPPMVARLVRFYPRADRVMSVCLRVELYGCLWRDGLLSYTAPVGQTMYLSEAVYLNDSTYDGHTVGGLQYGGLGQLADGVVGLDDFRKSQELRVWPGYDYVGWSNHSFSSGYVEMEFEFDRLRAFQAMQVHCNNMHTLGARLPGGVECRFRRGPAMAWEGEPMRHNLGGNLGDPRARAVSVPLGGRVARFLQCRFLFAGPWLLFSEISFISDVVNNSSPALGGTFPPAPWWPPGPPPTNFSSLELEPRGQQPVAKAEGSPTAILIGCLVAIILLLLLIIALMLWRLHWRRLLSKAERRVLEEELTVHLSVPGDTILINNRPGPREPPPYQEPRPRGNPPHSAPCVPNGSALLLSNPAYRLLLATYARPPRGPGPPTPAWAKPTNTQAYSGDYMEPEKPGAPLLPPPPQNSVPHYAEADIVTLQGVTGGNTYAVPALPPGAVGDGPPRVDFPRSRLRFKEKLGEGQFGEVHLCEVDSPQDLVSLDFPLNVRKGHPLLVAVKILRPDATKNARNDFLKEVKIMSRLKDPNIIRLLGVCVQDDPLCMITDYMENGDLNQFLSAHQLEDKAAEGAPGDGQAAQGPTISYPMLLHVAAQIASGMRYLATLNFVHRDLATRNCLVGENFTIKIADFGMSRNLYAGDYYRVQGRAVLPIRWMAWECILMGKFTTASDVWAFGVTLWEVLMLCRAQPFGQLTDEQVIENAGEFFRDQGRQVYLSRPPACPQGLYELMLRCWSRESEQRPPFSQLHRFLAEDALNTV
Description: as §1, §2, §3, §4, §5, §6

[10] = target: T9, RSK1 (Homo sapiens, UniProt Q15418); assay: KinaseSeeker competition binding assay
T9 construct: made in house; host or cells: cell-free, rabbit reticulocyte lysate
Description: as §1, §2, §3, §4, §5, §6

[11] = target: T10, RIPK2 (Homo sapiens, UniProt O43353); assay: KinaseSeeker competition binding assay
T10 construct: made in house; host or cells: cell-free, rabbit reticulocyte lysate
T10 sequence (O43353 whole entry): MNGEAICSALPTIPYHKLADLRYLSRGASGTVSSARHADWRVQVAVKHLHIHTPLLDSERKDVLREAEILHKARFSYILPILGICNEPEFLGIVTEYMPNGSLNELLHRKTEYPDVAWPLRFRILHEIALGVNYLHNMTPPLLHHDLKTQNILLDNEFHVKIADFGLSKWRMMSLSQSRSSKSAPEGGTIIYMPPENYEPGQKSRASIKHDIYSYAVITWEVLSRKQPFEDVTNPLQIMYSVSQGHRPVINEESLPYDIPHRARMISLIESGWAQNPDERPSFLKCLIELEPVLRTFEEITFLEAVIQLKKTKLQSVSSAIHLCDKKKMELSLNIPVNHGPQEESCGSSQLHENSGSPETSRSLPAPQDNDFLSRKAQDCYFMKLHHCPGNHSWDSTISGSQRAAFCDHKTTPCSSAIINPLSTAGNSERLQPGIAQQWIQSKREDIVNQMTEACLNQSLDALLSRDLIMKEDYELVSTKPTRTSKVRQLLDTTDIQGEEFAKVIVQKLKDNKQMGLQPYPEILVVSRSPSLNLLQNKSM
Description: as §1, §2, §3, §4, §5, §6

[12] = target: T11, BRAF (Homo sapiens, UniProt P15056); assay: KinaseSeeker competition binding assay
T11 construct: made in house; host or cells: cell-free system (rabbit reticulocyte lysate)
T11 sequence (P15056 whole entry): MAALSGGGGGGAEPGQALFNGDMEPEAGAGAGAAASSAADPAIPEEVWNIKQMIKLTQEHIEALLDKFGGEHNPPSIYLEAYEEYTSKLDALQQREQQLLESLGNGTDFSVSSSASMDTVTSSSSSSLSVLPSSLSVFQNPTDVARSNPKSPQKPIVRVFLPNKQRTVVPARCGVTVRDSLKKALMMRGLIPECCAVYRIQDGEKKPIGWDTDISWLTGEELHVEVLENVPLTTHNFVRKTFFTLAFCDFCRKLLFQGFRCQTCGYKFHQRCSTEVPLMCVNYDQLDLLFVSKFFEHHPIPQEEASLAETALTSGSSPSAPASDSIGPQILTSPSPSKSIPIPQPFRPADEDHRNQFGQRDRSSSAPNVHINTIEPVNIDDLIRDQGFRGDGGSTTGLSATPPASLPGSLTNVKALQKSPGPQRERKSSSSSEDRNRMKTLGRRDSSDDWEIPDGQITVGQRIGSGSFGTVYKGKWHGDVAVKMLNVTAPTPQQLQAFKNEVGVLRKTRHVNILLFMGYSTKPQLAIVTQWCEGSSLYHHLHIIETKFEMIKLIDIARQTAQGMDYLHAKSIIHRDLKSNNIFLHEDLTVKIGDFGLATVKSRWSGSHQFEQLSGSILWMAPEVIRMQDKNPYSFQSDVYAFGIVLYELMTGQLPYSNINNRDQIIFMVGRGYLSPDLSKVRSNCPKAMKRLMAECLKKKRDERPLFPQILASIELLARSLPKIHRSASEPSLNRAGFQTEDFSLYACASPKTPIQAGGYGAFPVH
Description: as §1, §2, §3, §4, §5, §6

[13] = target: T12, MUSK (Homo sapiens, UniProt O15146); assay: KinaseSeeker competition binding assay
T12 construct: made in house; host or cells: cell-free, rabbit reticulocyte lysate
T12 sequence (O15146 24-869): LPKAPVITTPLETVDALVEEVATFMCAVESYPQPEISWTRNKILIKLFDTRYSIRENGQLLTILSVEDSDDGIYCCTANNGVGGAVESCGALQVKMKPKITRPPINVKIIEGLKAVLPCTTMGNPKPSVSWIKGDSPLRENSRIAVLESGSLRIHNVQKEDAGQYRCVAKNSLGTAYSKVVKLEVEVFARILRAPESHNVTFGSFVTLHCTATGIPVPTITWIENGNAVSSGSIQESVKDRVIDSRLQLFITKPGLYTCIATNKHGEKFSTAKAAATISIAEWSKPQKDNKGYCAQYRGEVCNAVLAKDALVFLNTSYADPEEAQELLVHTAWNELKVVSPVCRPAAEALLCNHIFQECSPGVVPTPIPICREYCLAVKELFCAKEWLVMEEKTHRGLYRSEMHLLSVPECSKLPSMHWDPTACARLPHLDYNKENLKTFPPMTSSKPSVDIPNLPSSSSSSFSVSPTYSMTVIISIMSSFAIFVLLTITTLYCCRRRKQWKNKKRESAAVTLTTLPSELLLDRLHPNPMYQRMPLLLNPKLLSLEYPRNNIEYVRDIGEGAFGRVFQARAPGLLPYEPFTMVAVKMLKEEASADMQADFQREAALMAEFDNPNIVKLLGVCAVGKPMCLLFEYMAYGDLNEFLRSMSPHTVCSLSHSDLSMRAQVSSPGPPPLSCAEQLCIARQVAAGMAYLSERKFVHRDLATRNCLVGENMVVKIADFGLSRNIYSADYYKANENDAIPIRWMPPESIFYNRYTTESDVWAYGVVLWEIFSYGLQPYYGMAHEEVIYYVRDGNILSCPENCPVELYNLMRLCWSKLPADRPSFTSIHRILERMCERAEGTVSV
Description: as §1, §2, §3, §4, §5, §6

[14] = test system: HCC827 P cells; assay: Combination analysis of cell growth inhibition (SRB, CalcuSyn); format: cell-based, human
Description: As described in Example 2.1. Two cell lines, HCC827-P and HCC827-TR (Tarceva-resistant HCC727 cells-an EGFRi resistant cell line with MET amplification) (Wang, Pursell et al. 2013) were used in the combination study. Exponentially growing HC[…] and HCC827-TR cells were seeded into 96-wells dishes at density of 3,000 cells per well. Twenty-four hours later, the cells were exposed concurrently to serial dilution of Reno647 or Carboplatin or Camptothecin alone or in combination at a ratio of 1:50 with Carboplatin or at ratio 1:1 with Camptothecin for 3 days. Reno647 were concurrently and sequentially with paclitaxel (Taxol) at ratio of 200:1 for 6 days. For sequential exposure, the cells were treated with Reno647 for 3 days, after removal of the drug containing medium, the cells were treated with Taxol for additional 3 days, or the cells were treated by Taxol first followed by the treatment with Reno 647. After incubation for 6 days, the cell growth was measured by SRB as described previously in Example 2.1 section, and the percentages of inhibition (1-T/C) % were calculated, and data were analyzed by a PC program, CalcuSyn, Biosoft (edited by T.-C. Chou, Memorial Sloan-Kettering Cancer Center, New York, and M. P. Hayball, at Cambridge, UK, 1996). The computer-calculated combination index (CI) was used to judge the outcomes of a combination: […] It has long been accepted that chemotherapy provided some benefit for patients with non-small-cell lung cancer (NSCLC) in terms of quality of life and symptomatology as well as modest improvements in survival. […] Cell growth was determined by SRB as described above. […] Cell growth was determined by SRB as described above. […] (FIG. 5 C&D, CIs were well below 1 at effective concentration), particularly at higher concentration where Reno647 achieves its effective inhibition on […]. […] However, induction of EGFR activation mediated by Taxol may compromise activity of EGFR inhibitors. To examine our hypothesis, Taxol was combined with Reno647 in three different sequential exposures: • Combination 1: exposure of HC[…] or TR cells to Reno647+Taxol simultaneously for 6 days. • Combination 2: exposure of the cells to Reno647 first for 3 days followed by treatment with Taxol for an additional 3 days, or • Combination 3: exposure of the cells to Taxol first for 3 days followed by treatment with Reno647 for an additional 3 days. Exposure of the cells to either Reno647 or Taxol served as controls. After exposure, cell growth was determined by SRB and analyzed as described in above section.

[15] = HCC827P, ratio 200:1, 3 days + 3 days

T1 sequence (O14965 whole entry): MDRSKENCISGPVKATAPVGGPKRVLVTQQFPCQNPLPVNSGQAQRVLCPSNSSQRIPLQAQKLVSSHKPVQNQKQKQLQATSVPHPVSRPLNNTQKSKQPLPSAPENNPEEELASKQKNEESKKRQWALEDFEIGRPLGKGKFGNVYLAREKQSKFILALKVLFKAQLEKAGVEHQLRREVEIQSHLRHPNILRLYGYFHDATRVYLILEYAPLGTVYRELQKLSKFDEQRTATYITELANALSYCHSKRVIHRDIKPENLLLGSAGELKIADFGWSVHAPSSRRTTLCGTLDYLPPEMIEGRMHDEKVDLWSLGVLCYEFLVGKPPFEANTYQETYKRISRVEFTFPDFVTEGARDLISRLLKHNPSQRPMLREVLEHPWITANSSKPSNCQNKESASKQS

C#Cc1cccc(Nc2ncnc3cc(OCCOC)c(NC(=O)c4ccc(F)c([N+](=O)[O-])c4)cc23)c1 [Reno647, 4-Fluoro-N-[4-(3-ethynyl-phenylamino)-7-(2-methoxy-ethoxy)-quinazolin-6-yl]-3-nitro-benzamide]
remaining binding at 2 µM [1]: 100% | remaining binding at 2 µM [2]: 92.8% | remaining binding at 2 µM [3]: 99.7% | remaining binding at 2 µM [4]: 92.8% | remaining binding at 2 µM [5]: 51.7% | % Activity Remaining [6]: 100.0% | remaining binding at 2 µM [7]: 95.5% | remaining binding at 2 µM [8]: 96.4% | remaining binding at 2 µM [9]: ~42% | remaining binding at 2 µM [10]: 100% | remaining binding at 2 µM [11]: ~41% | remaining binding at 2 µM [12]: 100% | remaining binding at 2 µM [13]: 91.8% | combination index (CI), Reno647 with Camptothecin ([14]; HCC827 P, ratio 1:1, concurrent, 3 days, at effective concentration): below 1 | combination index (CI), Reno647 with Carboplatin ([14]; HCC827 P, ratio 1:50, concurrent, 6 days, at effective concentrations): below 1 | combination index (CI), Reno647 first followed by Taxol [14, 15]: > 1 | combination index (CI), Taxol first followed by Reno647 [14, 15]: < 1 | combination index (CI), Reno647 and Taxol concurrently ([14]; HCC827P, ratio 200:1, 6 days): < 1
